# Assay results reported in US10660900B2 (priority 2014, dated 2020).
# “And” between values parts separate entries of the source, which are not always exact repeats. Equal entries are not always repeated. Where two headings read alike, the source gives them in different places.
# Legend:
# OPRK = OPRK (Homo sapiens, UniProt P41145); assay: biochemical; set-up: expressed in transfected cells; host or cells: CHO-K1
# [1] = Cold pressor test in healthy volunteers; assay type: in vivo, human; conditions: 3-60 mg single oral doses versus placebo; hand immersion duration and VAS pain score
# Description: Analgesic effect was assessed based on duration of hand immersion in ice water and on visual analog scale (VAS) pain scores upon hand removal from the water bath.
# Safety and tolerability of noribogaine were tested in the group of volunteers from Example 1. Cold pressor testing was conducted in 1° C. water according to the method of Mitchell et al. (J Pain 5:233-237, 2004) pre-dose, 6, 24, 48, 72 and 216 hours post-dosing. Safety evaluations included clinical monitoring, recording of adverse events (AEs), safety laboratory tests, vital signs, ECG telemetry from −2 h to 6 h after dosing, and 12-lead electrocardiograms (ECGs) up to 216 hours post-dosing.
# [2] = Time to resumption of opioid substitution treatment and withdrawal scales (COWS, SOWS, OOWS); assay type: in vivo, human
# human OPRM = human OPRM (Homo sapiens, UniProt P35372); assay: biochemical; set-up: expressed in transfected cells; host or cells: CHO-K1 (cell line provided by Dr. Toll, Torrey Pines Institute); membranes prepared in house
# Sequence of human OPRM (P35372 whole entry): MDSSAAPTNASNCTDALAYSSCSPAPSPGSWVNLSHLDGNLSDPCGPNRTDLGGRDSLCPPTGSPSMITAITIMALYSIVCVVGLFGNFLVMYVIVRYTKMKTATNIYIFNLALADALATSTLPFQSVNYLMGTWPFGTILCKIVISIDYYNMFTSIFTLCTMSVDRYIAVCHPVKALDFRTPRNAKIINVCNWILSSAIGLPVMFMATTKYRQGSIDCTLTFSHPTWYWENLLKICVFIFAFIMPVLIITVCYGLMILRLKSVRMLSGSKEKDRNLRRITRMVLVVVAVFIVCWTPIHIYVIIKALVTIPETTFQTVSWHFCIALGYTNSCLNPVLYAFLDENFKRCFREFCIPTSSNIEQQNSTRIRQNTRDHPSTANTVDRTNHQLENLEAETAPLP
# [3] = rats; centrally mediated; Baumann, Rothman et al. 2001; cited from earlier work
# [4] = Treatment emergent adverse events in opioid-dependent patients, single dose
# [5] = target: opioid receptor delta (OPRD) (Bos taurus, UniProt F1N083); conditions: printed in the SEM column; literature; cited from earlier work
# Sequence of opioid receptor delta (OPRD) (F1N083 1-372): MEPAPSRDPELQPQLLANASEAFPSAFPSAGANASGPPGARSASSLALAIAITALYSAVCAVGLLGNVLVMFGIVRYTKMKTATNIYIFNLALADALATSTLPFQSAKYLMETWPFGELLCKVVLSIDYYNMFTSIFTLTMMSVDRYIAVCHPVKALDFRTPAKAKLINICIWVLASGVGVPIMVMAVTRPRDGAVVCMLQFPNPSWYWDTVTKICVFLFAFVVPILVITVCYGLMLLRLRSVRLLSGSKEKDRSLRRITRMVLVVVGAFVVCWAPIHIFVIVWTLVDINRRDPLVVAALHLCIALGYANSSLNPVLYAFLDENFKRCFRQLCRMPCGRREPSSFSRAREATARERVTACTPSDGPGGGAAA
# [6] = tested on: human opioid receptor delta (OPRD); conditions: Pearl, Herrick-Davis et al. 1995; cited from earlier work
# calf OPRM = calf OPRM (Bos taurus, UniProt P79350); conditions: cited from earlier work; for Ki: read-out: Ki
# Sequence of calf OPRM (P79350 whole entry): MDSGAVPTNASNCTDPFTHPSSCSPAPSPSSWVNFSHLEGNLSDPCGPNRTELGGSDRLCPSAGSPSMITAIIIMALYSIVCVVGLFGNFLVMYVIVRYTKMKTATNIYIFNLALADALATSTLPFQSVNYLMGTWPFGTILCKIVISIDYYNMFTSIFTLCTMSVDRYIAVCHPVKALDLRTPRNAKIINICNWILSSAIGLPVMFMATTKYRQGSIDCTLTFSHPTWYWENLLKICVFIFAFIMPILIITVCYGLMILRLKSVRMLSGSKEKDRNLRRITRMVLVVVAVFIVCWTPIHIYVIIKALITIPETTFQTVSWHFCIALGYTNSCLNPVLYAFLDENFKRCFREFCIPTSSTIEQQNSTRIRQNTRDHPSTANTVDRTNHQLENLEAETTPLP
# Sequence of OPRK (P41145 whole entry): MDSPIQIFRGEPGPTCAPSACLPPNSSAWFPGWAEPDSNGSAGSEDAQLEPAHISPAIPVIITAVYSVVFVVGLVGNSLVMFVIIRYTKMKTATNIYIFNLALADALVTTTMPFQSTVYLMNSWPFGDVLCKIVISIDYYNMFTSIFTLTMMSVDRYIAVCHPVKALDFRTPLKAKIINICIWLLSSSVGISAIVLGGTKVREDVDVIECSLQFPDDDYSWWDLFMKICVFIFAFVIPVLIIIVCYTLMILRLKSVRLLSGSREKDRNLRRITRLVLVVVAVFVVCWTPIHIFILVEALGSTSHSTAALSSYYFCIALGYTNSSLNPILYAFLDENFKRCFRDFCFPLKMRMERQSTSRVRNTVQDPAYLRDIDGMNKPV
structure (smiles),measurement,setting,value
"CC[C@H]1CC2C[C@H]3c4[nH]c5ccc(O)cc5c4CCN(C2)C13 [Noribogaine, noribogaine]",Efficacy (Emax),OPRK,70%
same,Efficacy (inhibition),OPRK,−30% and −25%
same,e-coupling (pKi-pEC50),OPRK,1.08
same,"e-coupling, G-protein Pathway",OPRK,1.72 and 1.08
same,own reduced signal level to which rival agonist signal is leveled down,OPRK,70%
same,pEC50,OPRK,5.1
same,Ki,OPRK; Ke,12 µM and 24 µM
same,EC50,OPRK; read-out: EC50,8.75 µM and 8.7 µM
same,Emax,OPRK; read-out: Efficacy (Emax),72 ± 3.8%
same,analgesic effect in the cold pressor test,[1],no analgesic effect
same,"withdrawal symptoms (COWS, OOWS, SOWS), first six hours after dosing",[2]; 120 mg noribogaine,fewer withdrawal symptoms than the other patients
same,average time to resumption of opioids (OST),[2]; single 120 mg dose,greater than 20 hours
same,Efficacy (Emax),human OPRM,9.4%
same,Efficacy (inhibition),human OPRM,−100~ %
same,e-coupling (pKi-pEC50),human OPRM,1.02
same,e-coupling (pKi-pKe),human OPRM,1.10
same,pEC50,human OPRM,4.8
same,right-shift of EC50 of DAMGO and morphine,human OPRM,~1 log
same,Ki,human OPRM; Ke,19 µM and 28 µM
same,Emax,human OPRM; read-out: Efficacy (Emax),10%
same,release of prolactin,[3],triggered the release of prolactin
same,Catheter Site Infection,[4]; 60 mg noribogaine (N = 6),0
same,Catheter Site Pain,[4]; 60 mg noribogaine (N = 6),0
same,Catheter Site Related Reaction,[4]; 60 mg noribogaine (N = 6),0
same,Cellulitis,[4]; 60 mg noribogaine (N = 6),0
same,Diarrhoea,[4]; 60 mg noribogaine (N = 6),0
same,Diy Mouth,[4]; 60 mg noribogaine (N = 6),0
same,Ear and Labyrinth Disorders,[4]; 60 mg noribogaine (N = 6),0
same,Epistaxis,[4]; 60 mg noribogaine (N = 6),0
same,Euphoric Mood,[4]; 60 mg noribogaine (N = 6),0
same,General Disorders and Administration Site Conditions,[4]; 60 mg noribogaine (N = 6),0
same,Hyperaesthesia,[4]; 60 mg noribogaine (N = 6),0
same,Infections and Infestations,[4]; 60 mg noribogaine (N = 6),0
same,Limb Discomfort,[4]; 60 mg noribogaine (N = 6),0
same,Malaise,[4]; 60 mg noribogaine (N = 6),0
same,Nausea,[4]; 60 mg noribogaine (N = 6),0
same,Oropharyngeal Pain,[4]; 60 mg noribogaine (N = 6),0
same,Pseudoparalysis,[4]; 60 mg noribogaine (N = 6),0
same,"Respiratory, Thoracic and Mediastinal Disorders",[4]; 60 mg noribogaine (N = 6),0
same,Rhinorrhoea,[4]; 60 mg noribogaine (N = 6),0
same,Skin Discomfort,[4]; 60 mg noribogaine (N = 6),0
same,Skin Irritation,[4]; 60 mg noribogaine (N = 6),0
same,Skin and Subcutaneous Tissue Disorders,[4]; 60 mg noribogaine (N = 6),0
same,Somnoience,[4]; 60 mg noribogaine (N = 6),0
same,Tinnitus,[4]; 60 mg noribogaine (N = 6),0
same,Tremor,[4]; 60 mg noribogaine (N = 6),0
same,Urinary Tract Infection,[4]; 60 mg noribogaine (N = 6),0
same,Vomiting,[4]; 60 mg noribogaine (N = 6),0
same,Back Pain,[4]; 120 mg noribogaine (N = 6),0
same,Catheter Site Infection,[4]; 120 mg noribogaine (N = 6),0
same,Catheter Site Related Reaction,[4]; 120 mg noribogaine (N = 6),0
same,Depressed Mood,[4]; 120 mg noribogaine (N = 6),0
same,Dry Eye,[4]; 120 mg noribogaine (N = 6),0
same,Dyspepsia,[4]; 120 mg noribogaine (N = 6),0
same,Euphoric Mood,[4]; 120 mg noribogaine (N = 6),0
same,Limb Discomfort,[4]; 120 mg noribogaine (N = 6),0
same,Malaise,[4]; 120 mg noribogaine (N = 6),0
same,Musculoskeletal and Connective Tissue Disorders,[4]; 120 mg noribogaine (N = 6),0
same,Psychiatric Disorders,[4]; 120 mg noribogaine (N = 6),0
same,Somnoience,[4]; 120 mg noribogaine (N = 6),0
same,Urinary Tract Infection,[4]; 120 mg noribogaine (N = 6),0
same,Catheter Site Infection,[4]; 180 mg noribogaine (N = 6),0
same,Catheter Site Pain,[4]; 180 mg noribogaine (N = 6),0
same,Depressed Mood,[4]; 180 mg noribogaine (N = 6),0
same,Diarrhoea,[4]; 180 mg noribogaine (N = 6),0
same,Dry Eye,[4]; 180 mg noribogaine (N = 6),0
same,Dyspepsia,[4]; 180 mg noribogaine (N = 6),0
same,Ear and Labyrinth Disorders,[4]; 180 mg noribogaine (N = 6),0
same,Epistaxis,[4]; 180 mg noribogaine (N = 6),0
same,Euphoric Mood,[4]; 180 mg noribogaine (N = 6),0
same,Hyperaesthesia,[4]; 180 mg noribogaine (N = 6),0
same,Malaise,[4]; 180 mg noribogaine (N = 6),0
same,Oropharyngeal Pain,[4]; 180 mg noribogaine (N = 6),0
same,Pseudoparalysis,[4]; 180 mg noribogaine (N = 6),0
same,Psychiatric Disorders,[4]; 180 mg noribogaine (N = 6),0
same,"Respiratory, Thoracic and Mediastinal Disorders",[4]; 180 mg noribogaine (N = 6),0
same,Rhinorrhoea,[4]; 180 mg noribogaine (N = 6),0
same,Skin Discomfort,[4]; 180 mg noribogaine (N = 6),0
same,Skin Irritation,[4]; 180 mg noribogaine (N = 6),0
same,Skin and Subcutaneous Tissue Disorders,[4]; 180 mg noribogaine (N = 6),0
same,Somnoience,[4]; 180 mg noribogaine (N = 6),0
same,Tinnitus,[4]; 180 mg noribogaine (N = 6),0
same,Tremor,[4]; 180 mg noribogaine (N = 6),0
same,hallucinatory effects,"[4]; 60, 120 or 180 mg single dose",no hallucinatory effects
same,Ki,[5],24.7 µM
same,less affine at OPRD than at OPRK,[6],~30 ×
same,Ki,calf OPRM; calf OPRM,1.52 µM
same,pKi,"calf OPRM; calf receptor, literature",5.6
same,Ki,"calf OPRM; calf receptor, literature",2.66 µM
